Experiments:
[1] = system: patients on permanent therapy with simvastatin or atorvastatin; test: Long term MNA use in patients on permanent therapy with statins, lipoprotein levels; type: in vivo, human
Method: A group of 8 patients (5 females and 3 males, ages 59-85) on permanent therapy with simvastatin or atorvastatin (10-20 mg/day) were selected for the study. MNA in a daily dose of 90-180 mg was co-administrated for a period of 3 to 42 months. The liporotein levels for each patient were monitored in every 1 to 3 months. […] The changes varied from patient to patient within a limit −5% to −42%. The appropriate changes in LDL were within −12% to +17% and in HDL within −6% to +37%.

dyslipidemic patients = test: Anti-atherogenic effect of MNA after long term use (13 months), plasma lipids in patients; type: in vivo, human; details: for HDL % / TG % / TG/HDL % / Total Cholesterol % / LDL %: change vs time 0
Method: The anti-atherogenic effect of MNA was investigated in 2 dyslipidemic patients. The enrollment criteria was: high level of TG (≧250 mg/dl) and/or high level of TC (≧200 mg/dl). The patients were treated with MNA for 13 months. The MNA was administered orally, two times a day (50 mg MNA) after meal.
The plasma levels of TC, TG, and HDL were measured at baseline and during the therapy. The level of LDL was measured in those cases where it was possible (due to high TG level).

[2] = Binding to Sepharose immobilized heparin; details: as a cationic molecule
apoE/LDLR−/− mice = test: Mice model of atheroprotection, quantitation of atherosclerosis; type: in vivo; details: female apoE/LDLR−/− mice, 100 mg/kg MNA for 2 months, vs placebo; FIG. 2
Method: Female apoE/LDLR^−/− mice on C57BL/6J background were used for experiments. The experiments were conducted according to the Guidelines for Animal Care and Treatment of the European Communities and were approved by the Local Animal Ethics Committee. apoE/LDLR^−/− mice were fed with standard chow. MNA was given for 2 months (100 mg/kg, 4-6 months old apoE/LDLR^−/− mice) and effects of MNA compared to placebo-treated mice. In each group of mice (control and MNA) n=5.
Development of atherosclerosis was determined by cross-section (aortic roots), en-face (whole aorta) analysis and quantified semiautomatically, as described before (Jawien et al. Eur J Clin Invest; 2006; 36:141-6). Briefly, the heart and whole aorta were washed by phosphate buffered saline, then the heart and the whole aorta were removed. The heart and ascending aorta were embedded in OCT compound and snap-frozen. Ten micrometer-thick cryosections were cut and after fixation in 4% paraformaldehyde were stained with Meyer's hematoxylin and oil red-O and lesion area was measured semiautomatically in each slide using LSM Image Browser software.

[3] = 2 dyslipidemic patients, 50 mg MNA orally two times a day, 13 months

## 1-methylnicotinamide chloride [MNA]
[1]; co-administration with statin, patients with a low starting HDL level (<40 mg/dl)
  HDL: particularly remarkable increase
[1]; long term co-administration of MNA with simvastatin or atorvastatin, in general
  Triglyceride (TG) level: reduction
[1]; long term co-administration of MNA with statins
  Negative side effects: Neither patients nor doctors involved with this study have declared any negative side effects
Dyslipidemic patients; [3]
  TC level: reduced significantly
  TG level: reduced significantly
Dyslipidemic patients; 2 dyslipidemic patients, after only a few months of therapy
  HDL levels: increase
Dyslipidemic patients; 2 dyslipidemic patients, long term use
  TG/HDL ratio: reduction
Dyslipidemic patients; Patient 1, 50 mg MNA orally two times a day, 1.5 months
  TG: 218 mg/dL
Dyslipidemic patients; Patient 1, 50 mg MNA orally two times a day, 6 months
  TG: 255 mg/dL
Dyslipidemic patients; Patient 1, 50 mg MNA orally two times a day, 12 months
  TG: 315 mg/dL
Dyslipidemic patients; Patient 1, 1.5 months
  HDL: 28.0 mg/dL
  LDL: 81.4 mg/dL
  TG/HDL: 7.79
  Total Cholesterol: 153 mg/dL
  HDL %: −8.79%
  TG %: −77.39%
  TG/HDL %: −75.21%
  Total Cholesterol %: −48.66%
Dyslipidemic patients; Patient 1, 6 months
  HDL: 38.6 mg/dL
  LDL: 87.0 mg/dL
  TG/HDL: 6.61
  Total Cholesterol: 177 mg/dL
  HDL %: 25.73%
  TG %: −73.55%
  TG/HDL %: −78.96%
  Total Cholesterol %: −40.60%
Dyslipidemic patients; Patient 1, 12 months
  HDL: 48.1 mg/dL
  LDL: 118.0 mg/dL
  TG/HDL: 6.55
  Total Cholesterol: 229 mg/dL
  HDL %: 56.68%
  TG %: −67.32%
  TG/HDL %: −79.14%
  Total Cholesterol %: −23.15%
Dyslipidemic patients; Patient 2, 50 mg MNA orally two times a day, 7 months
  TG: 269 mg/dL
Dyslipidemic patients; Patient 2, 50 mg MNA orally two times a day, 13 months
  TG: 160 mg/dL
Dyslipidemic patients; Patient 2, 7 months
  HDL: 79.0 mg/dL
  LDL: 128.0 mg/dL
  TG/HDL: 3.41
  Total Cholesterol: 261 mg/dL
  HDL %: 79.55%
  LDL %: −53.11%
  TG %: −10.93%
  TG/HDL %: −50.39%
  Total Cholesterol %: −28.49%
Dyslipidemic patients; Patient 2, 13 months
  HDL: 70.8 mg/dL
  LDL: 106.8 mg/dL
  TG/HDL: 2.26
  Total Cholesterol: 210 mg/dL
  HDL %: 60.91%
  LDL %: −60.88%
  TG %: −47.02%
  TG/HDL %: −67.07%
  Total Cholesterol %: −42.47%
[2]
  Binding to Sepharose immobilized heparin: bound
apoE/LDLR−/− mice
  Atherosclerosis progression (lesion area): slows atherosclerosis progression

— patent US8211922B2, “1-methylnicotinamide derivatives and formulations for treatment of lipoprotein abnormalities” (Cortria Corporation, priority 2005, dated 2012)
